1 compound from US12214036B2, “Combination therapy comprising AXL/MER and PD-1/PD-L1 inhibitors” (Incyte Corporation, priority 2020, dated 2025) can be followed below.

Test [1] concerns BAF3 cells expressing AXL. As to the kind of experiment: BAF3-AXL cell proliferation assay (CellTiter-Glo). It counts as cell-based. The note with it: Mus musculus, 48 hours, 2% FBS. The text has this: To evaluate the cellular potency and selectivity within the TAM receptor family, mouse BAF3 cell lines with stable expression of AXL, MER, or TYRO3 were generated.
The cytoplasmic domain of AXL, MER, or TYRO3 fused with dimerization sequence and HA tag was cloned into a pMSCV (murine stem cell virus) vector with a puromycin-resistance marker to generate three constructs individually by electroporation into BAF3 cells. Single clones that were IL-3-independent and puromycin-resistant were selected and characterized. To evaluate effects on BAF3 cell proliferation, 1000 cells/well of BAF3, BAF3-AXL, BAF3 MER, or BAF3-TYRO3 cells were treated in the presence or absence of Compound 1 at various concentrations (10 concentration points with a three-fold dilution factor from the highest concentration of 10 μM) diluted in RPMI-1640 with 2% FBS for 48 hours in a 384-well plate. Cell viability was measured by ATP assay (CellTiter-Glo Assay, Promega, Madison, Wis.) according to the manufacturer's procedure. The data were converted to percent inhibition relative to DMSO control, and IC50 curves were fitted using GraphPad Prism software.

The test system of test [2] is CTG-2041 tumors. Put plainly: Sarcoma PDX model CTG-2041 (angiosarcoma). The class given is in vivo, athymic nude mice. The procedure:
Macrophages were allowed to thaw on ice before being lysed with 250 μL/well of 1× Lysis Buffer (Cell Signaling Technology; #9803) and Halt protease and phosphatase inhibitors (ThermoFisher Scientific) for 1 hour at 4° C. The lysed cells were scraped and transferred to an Eppendorf vial on ice. The lysates were centrifuged at 12,700 rpm for 15 minutes at 4° C. PDX tumors were weighed and homogenized with lysis buffer supplemented with protease and phosphatase inhibitor cocktails (Roche, Basel, Switzerland; #11836170001). Tumors were lysed on ice for 30 minutes, followed by centrifugation at 13,000 rpm for 10 minutes. Protein lysates were quantified using BCA Protein Assay Kit (Pierce, ThermoFisher Scientific; #23225). Lysates were transferred to a new tube together with 6× Laemmli SDS sample buffer (Alfa Aesar, Haverhill, Mass.) and the samples were heated for 6 minutes at 95° C. Approximately 50 μg of protein sample was loaded per well using Novex™ 8-16% Tris-Glycine Mini Gels or 4-12% Tris-Glycine Novex WedgeGels (Invitrogen, Carlsbad, Calif.). The proteins were transferred to a nitrocellulose membrane using an iBlot (ThermoFisher Scientific) dry blotting system. The membranes were blocked with 0.5% nonfat dry milk in wash buffer (100 mM NaCl, 10 mM Tris-HCl, pH 8.0, 0.1% Tween 20) for 1 hour at room temperature. The primary antibody used for pMER was from PhosphoSolutions (Aurora, Colo.; #p186-749). The remaining antibodies were obtained from Cell Signaling Technology: MER (#4319), pAXL (#5724), AXL, (#4566), GAS6 (#67202), pAKT (#4060), AKT (#9272), and β-Actin (#4970). Primary antibodies were added at 1:500 and 1:1000, respectively, in 0.5% milk/wash buffer and rocked overnight at 4° C. The membranes were washed three times in wash buffer before incubation with the secondary antibody (anti-rabbit IgG1-HRP; Cell Signaling Technology) at 1:2500 in 0.5% milk/wash buffer for 2 hours at room temperature. The membranes were washed again before the bands were detected with SuperSignal West Dura Extended Duration Chemiluminescent substrate (ThermoFisher Scientific) and were visualized using the Fluorochem M Digital Imager (Protein Simple, San Jose, Calif.).
MBT-2 cells were obtained from the Japanese Collection of Research Bioresources Cell Bank and were maintained in DMEM supplemented with 10% FBS. MC38 cells were obtained from the NCI. 4T1 cells were obtained from ATCC and maintained in RPMI media supplemented with 10% FBS. For MBT-2 experiments, 5×10^5 MBT-2 cells were inoculated subcutaneously into the right hind flank of 6- to 8-week-old C3H mice or athymic nude mice (Charles River Laboratories, Wilmington, Mass.). For MC38 studies, 12-week old female C57BL/6 mice were inoculated with brei of MC38 tumors (in-vivo passage 6) into the right hind flank. For 4T1 studies, 7.5×10^5 4 T1 cells were inoculated subcutaneously into the right hind flank of 6- to 8-week-old female BALB/c mice or athymic nude mice (Charles River Laboratories). Mice were randomized by tumor volume with n=10-12 per group. Compound 1 was dosed orally twice a day (BID) continuously from the start to the end of study. In the MC38 study, anti-programmed death ligand 1 (PD-L1) (BE0101, Bio X Cell, West Lebanon, NH) was dosed intraperitoneally at 15 mg/kg twice a week. […] Mice were monitored for tumor growth and overt tolerability over the course of the experiment. […]

As for `CC(C)C(=O)N1CCC(c2cc(-c3ccc(NC(=O)c4cn(C(C)C)c(=O)n(-c5ccccn5)c4=O)cc3)c3c(N)ncnn23)CC1` [Compound 1, N-(4-(4-Amino-7-(1-isobutyrylpiperidin-4-yl)pyrrolo[1,2-f][1,2,4]triazin-5-yl)phenyl)-1-isopropyl-2,4-dioxo-3-(pyridin-2-yl)-1,2,3,4-tetrahydropyrimidine-5-carboxamide], in test [1], the GI50 worked out at 16 ± 11 nM. The tumour growth inhibition (TGI) in test [2] (CTG-2041, equivalent activity at 10, 30 and 100 mg/kg BID oral, FIG. 9A) was found to be 95%. Also, in test [2] (CTG-2041 tumors, FIG. 9D), the “GAS6 levels in tumors (Western blot)” value is reported as “increased”; the “pAKT in tumors (Western blot)” value is listed as “inhibited”; the “pAXL and pMER in tumors (Western blot)” value was “inhibited”; the “total MER levels in tumors (Western blot)” value is “increased”.

Broadly, the GI50 is the concentration at which growth is held to half of that of the control. High values mean lower sensitivity of the cells, low ones greater sensitivity of the cells. For orientation: TGI means the reduction of tumour growth relative to the control group.
